# Measured values from patent publication US6245758A, “Methods of use for peroxynitrite decomposition catalysts, pharmaceutical compositions therefor” (priority 1996, dated 2001).
# Assays:
# [1] = Stopped-flow kinetic analysis of catalytic decomposition of peroxynitrite by metal complexes; conditions: pH = 7.4, 22° C.
# Procedure: To screen metal complexes for peroxynitrite decomposition catalytic activity of the present invention, peroxynitrite is prepared and isolated as its sodium salt by the reaction of acidic hydrogen peroxide with sodium nitrite followed by rapid quenching with NaOH as set out by Halfpenny and Robinson, in J. Chem. So., 1952, 928-938. Peroxynitrite has an absorbance maximum at 302 nm with an extinction coefficient of 1670 M^-1 cm^-1. Therefore, it is possible to directly observe the decomposition of peroxynitrite by stop-flow spectrophotometric analysis by monitoring the decomposition of the absorbance at 302 nm. That is, such observation of the decomposition of peroxynitrite at a rate accelerated over the natural decomposition rate with the addition of the metal complex identifies a compound of the present invention.
# Kinetic measurements were made on an OLIS Rapid Scanning Stopped-Flow Spectrometer (On-Line Instrument Systems Inc., Bogart, Ga.)) using the OLISRSM-1000 Operating system for data acquisition and manipulation.
# Thus, in a typical experiment the natural background decomposition rate of sodium peroxynitrite was determined as follows. A 24 mM stock solution of sodium peroxynitrite in 50 mM NaOH is load into the small volume syringe and 100 mM potassium phosphate pH=7.4 is charged into the large volume syringe of the stopped-flow spectrophotometer. All stopped -flow measurements were made at 22 ° C. Injection of the solutions into the sample compartment results in ~25 fold dilution of the stock sodium peroxynitrite. […] To test for catalytic peroxynitrite decomposition activity, the metal complex was dissolved in 100 mM potassium phosphate buffer pH=7.4 and loaded into the large syringe and the decomposition of peroxynitrite was monitored as described above. The catalytic rate constant (kcat M-1 sec^-1) for the complexes tested was determined by varying the complex concentration and plotting kobs vs [complex] Table 1. The kobs were obtained from averages of three stopped flow analysis at each catalyst concentration.
# [2] = Catalysis of dismutation of superoxide; conditions: under the assay conditions employed
# RAW 264.7 cells = assay: Cell protection assay, Alamar Blue viability after peroxynitrite challenge; format: cell-based, murine; conditions: for protection of cells from PN-mediated injury: PN 500 micromolar, RAW cells, FIG. 9 (H2 TMPyP and ZnTMPyP: data not shown)
# Procedure: FIG. 8: Comparison of Ni and Fe Catalyst Protection of RAW Cells from PN(peroxynitrite)-mediated Injury. RAW 264.7 cells were plated at approximately 2×10^5 per well of a 96-well plate. […] Each condition represents the mean of 4 wells ±sem.
# FIG. 9: Protection from PN-mediated RAW Cell Injury by Fe Catalysts. Cells were treated with 500 micromolar PN in the presence or the absence of the following catalysts: FeTMPyP, FeTMPS, FeTPPS. Cell viability was monitored as described in the text and figure legends 1, 2 and 3. Values represent the mean of 4 determinations ±sem.
# Protocol for Cell Protection Assays using Peroxynitrite Decomposition Catalysts: A cell viability assay was established to rapidly assess the efficacy of peroxynitrite(PN) catalysts in protecting cells from PN25 mediated injury and death. The peroxynitrite challenge consisted of a pulse of synthetic PN added exogenously to cells. In order to better assess the efficacy of PN catalysts in protecting cells from PN-mediated damage, a quantity of peroxynitrite(in 50 mM NaOH) determined to cause maximal injury(100%) was added as an exogenous pulse to each well of cells in the presence or absence of catalyst. The NaOH vehicle was not toxic by itself.
# Cells(RAW 264.7 cells or P815 mastocytoma cells; American Type Culture Collection, Rockville, Md.) were plated to confluence on 96-well tissue culture plates. Each well is washed twice with Dulbecco's phosphate buffered saline(DPBS; GIBCO BRL, Grand Island, N.Y.) to remove protein and other serum components which might react with the exogenous peroxynitrite. To each well is then added 200 μl of DPBS. PN is next placed into separate wells at increasing concentrations and cell viability monitored. The dose at which maximal cell death is attained is then utilized for the catalyst protection assessment.
# Phosphate-buffered saline (200 uL) containing increasing concentrations of catalyst is next placed into individual wells of cells. The maximal dose of PN is subsequently administered to all wells of cells. After 15 minutes, the medium is removed from each well and the cells are either allowed to recover overnight in Earles minimum essential medium without phenol red and supplemented with 10% fetal bovine serum or alternatively the plate of cells is assayed that day for mitochondrial integrity using the Alamar Blue viability assay(Alamar Biosciences, Inc.; Sacramento, Calif.). In either case, cells are incubated at 37° C. in 5% CO2.
# Cell injury is measured as follows. Briefly, 10% Alamar Blue(v/v) in Earles MEM with 10% FBS is added to each well of cells for 1-2h. Cell metabolism of the dye generates a fluorescent product which is directly related to the number of viable cells. Moreover, the production of the fluorescent metabolite is linear for over 2 h. The amount of fluorescent product in 100 μl of conditioned medium from each well of cells is then measured with an IDEXX fluorescent plate reader (gain setting of 1%) at an emission wavelength of 575 nm after exciting at 545 nm. Viability is either given as absolute fluorescent units or as a percent of the value obtained for untreated cells(100%).
# [3] = test system: carrageenan-induced paw edema; assay: Carrageenan-induced paw edema; format: in vivo, rat
# Source text: Carrageenan-induced paw edema. The effects of peroxynitrite catalysts in vivo were initially tested on the carrageenan-induced paw edema. The choice of using this in vivo model of inflammation was based on the knowledge that 1) the inflammatory response is blocked by NOS inhibitors and 2) by superoxide dismutase (SOD). This indicates the participation of both NO and of O2-. Male Sprague Dawley rats were purchased from Harlan Sprague-Dawley (Indianapolis, Ind.). Male Sprague Dawley rats (175-200 g) received a subplantar injection in the right hind paw of carrageenan (0.1 ml of a 1% suspension in 0.85% saline). Paw volume was measured by a plethysmometer immediately before the injection of carrageenan and then at hourly intervals from 1 to 6 h. Edema was expressed as the increase in paw volume (in ml) measured after carrageenan injection compared to the pre-injection value for individual animals.
# rat jejunum = assay: Histological examination of jejunal tissues after LPS; format: in vivo; conditions: 30 mg/kg i.v.
# [4] = 3 mg/kg i.v., 1 h post carrageenan
# [5] = 3 mg/kg i.v., 2 h post carrageenan
# [6] = 3 mg/kg i.v., 3 h post carrageenan
# [7] = 3 mg/kg i.v., 4 h post carrageenan
# [8] = 3 mg/kg i.v., 5 h post carrageenan
# [9] = 3 mg/kg i.v., 6 h post carrageenan
# [10] = 10 mg/kg i.v., 1 h post carrageenan
# [11] = 10 mg/kg i.v., 2 h post carrageenan
# [12] = 10 mg/kg i.v., 3 h post carrageenan
# [13] = 10 mg/kg i.v., 4 h post carrageenan
# [14] = 10 mg/kg i.v., 5 h post carrageenan
# [15] = 10 mg/kg i.v., 6 h post carrageenan
# [16] = 30 mg/kg i.v., 1 h post carrageenan
# [17] = 30 mg/kg i.v., 2 h post carrageenan
# [18] = 30 mg/kg i.v., 3 h post carrageenan
# [19] = 30 mg/kg i.v., 4 h post carrageenan
# [20] = 30 mg/kg i.v., 5 h post carrageenan
# [21] = 30 mg/kg i.v., 6 h post carrageenan
SMILES,"kcat, catalytic rate constant for the decomposition of sodium peroxynitrite [1] [M⁻¹ s⁻¹]",catalysis of the dismutation of superoxide [2],protection of cells from PN-mediated injury (RAW 264.7 cells),"% Inhibition of Paw Edema [3, 4] [%]","% Inhibition of Paw Edema [3, 5] [%]","% Inhibition of Paw Edema [3, 6] [%]","% Inhibition of Paw Edema [3, 7] [%]","% Inhibition of Paw Edema [3, 8] [%]","% Inhibition of Paw Edema [3, 9] [%]","% Inhibition of Paw Edema [3, 10] [%]","% Inhibition of Paw Edema [3, 11] [%]","% Inhibition of Paw Edema [3, 12] [%]","% Inhibition of Paw Edema [3, 13] [%]","% Inhibition of Paw Edema [3, 14] [%]","% Inhibition of Paw Edema [3, 15] [%]","% Inhibition of Paw Edema [3, 16] [%]","% Inhibition of Paw Edema [3, 17] [%]","% Inhibition of Paw Edema [3, 18] [%]","% Inhibition of Paw Edema [3, 19] [%]","% Inhibition of Paw Edema [3, 20] [%]",also measured
"CC(=O)[O-].Cc1c(-c2c3nc(c(-c4c(C)c(S(=O)(=O)[O-])c(C)c(S(=O)(=O)[O-])c4C)c4ccc([n-]4)c(-c4c(C)c(S(=O)(=O)[O-])c(C)c(S(=O)(=O)[O-])c4C)c4nc(c(-c5c(C)c(S(=O)(=O)[O-])c(C)c(S(=O)(=O)[O-])c5C)c5ccc2[n-]5)C=C4)C=C3)c(C)c(S(=O)(=O)[O-])c(C)c1S(=O)(=O)[O-].[Fe+3].[Na+].[Na+].[Na+].[Na+].[Na+].[Na+].[Na+].[Na+] [Fe(III)TMPS, Acetato-5,10,15,20-tetrakis(3,5-disulfonatomesityl)porphyrin Iron (III) octasodium salt]",160000,not to be effective catalysts for the dismutation of superoxide,significant protection of cells,0,42,47,47,33,33,0,61,60,53,53,47,0,85,80,80,80,"% Inhibition of Paw Edema [3, 21]: 81%; LPS-induced jejunal damage (histology) (rat jejunum): LPS-induced damage was less severe"
"CC(=O)[O-].C[n+]1ccc(-c2c3nc(c(-c4cc[n+](C)cc4)c4ccc([n-]4)c(-c4cc[n+](C)cc4)c4nc(c(-c5cc[n+](C)cc5)c5ccc2[n-]5)C=C4)C=C3)cc1.Cc1ccc(S(=O)(=O)[O-])cc1.Cc1ccc(S(=O)(=O)[O-])cc1.Cc1ccc(S(=O)(=O)[O-])cc1.Cc1ccc(S(=O)(=O)[O-])cc1.[Fe+3] [Fe(III)TMPyP, Acetato (5,10,15,20-tetrakis(N-methyl-4-pyridyl)porphinato) iron (III) tetra-tosylate]",2.75e+06,not to be effective catalysts for the dismutation of superoxide,significant protection of cells,0,9,10,17,6,0,6,13,11,28,21,2,0,44,43,50,32,"protection of RAW 264.7 cells from PN-mediated injury (RAW 264.7 cells; PN 360 micromolar, Alamar Blue, FIG. 8): total protection from PN-mediated injury; % Inhibition of Paw Edema [3, 21]: 32%; LPS-induced jejunal damage (histology) (rat jejunum): LPS-induced damage was less severe"
